Reference: paper PMC6627609, “Targeting Quorum Sensing: High-Throughput Screening to Identify Novel LsrK Inhibitors” (International Journal of Molecular Sciences, 2019)
Where a name gives a salt, the structure may show the parent alone.

Target: LsrK (Salmonella typhimurium, UniProt Q8ZKQ6)
Assay: biochemical
Type: biochemical, S. typhimurium
Details: for Inhibition (%): 50 µM

Sequence of LsrK (Q8ZKQ6 whole entry): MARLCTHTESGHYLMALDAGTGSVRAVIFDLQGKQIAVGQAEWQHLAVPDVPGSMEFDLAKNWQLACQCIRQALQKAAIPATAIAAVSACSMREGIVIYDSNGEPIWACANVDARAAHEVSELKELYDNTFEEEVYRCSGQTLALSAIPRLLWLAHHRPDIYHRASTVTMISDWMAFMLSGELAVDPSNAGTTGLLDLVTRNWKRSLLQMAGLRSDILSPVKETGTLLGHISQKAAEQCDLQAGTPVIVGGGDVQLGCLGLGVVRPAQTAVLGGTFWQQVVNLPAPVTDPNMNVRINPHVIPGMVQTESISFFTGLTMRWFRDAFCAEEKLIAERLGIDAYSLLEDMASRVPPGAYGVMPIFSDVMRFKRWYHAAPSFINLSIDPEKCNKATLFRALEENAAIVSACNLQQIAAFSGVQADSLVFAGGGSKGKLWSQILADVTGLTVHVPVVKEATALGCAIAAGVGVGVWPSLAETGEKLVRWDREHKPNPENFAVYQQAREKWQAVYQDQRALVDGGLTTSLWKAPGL

## O=c1c(O)c(-c2ccc(O)c(O)c2)oc2cc(O)ccc12 [FISETIN]
  inhibition at 50 µM: 33%

## CC(C)(C)CC(C)(C)c1ccc(O)c(Cc2ccc(Cl)cc2Cl)c1 [CLOFOCTOL]
  inhibition at 50 µM: 2%

## CC1(C)CC2C1CC[C@]1(CBr)CCC3C(CC(=O)O)C(=O)O[C@@]32C1 (stereo partly shown) [BROMO-3-HYDROXY-4-(SUCCIN-2-YL)-CARYOLANE gamma-LACTONE]
  inhibition at 50 µM: 1%

## O=c1cc(-c2ccccc2O)oc2cc(O)ccc12 [7.2'-DIHYDROXYFLAVONE]
  Inhibition (%): 76

## O=C(O)CCC(=O)c1ccc(-c2ccccc2)cc1 [FENBUFEN]
  inhibition at 50 µM: 2%

## Cc1ccc(N(CC2=NCCN2)c2cccc(O)c2)cc1 [PHENTOLAMINE HYDROCHLORIDE]
  inhibition at 50 µM: 0%

## CCOC(=O)c1cncn1[C@H](C)c1ccccc1 [ETOMIDATE]
  inhibition at 50 µM: 2%

## CCCCCCCCCCCCCCCC(=O)OC[C@H](O)[C@H]1OC(=O)C(O)=C1O [ASCORBYL PALMITATE]
  inhibition at 50 µM: 28%

## CN1CCC(=C2c3ccccc3Sc3ccccc32)CC1 [PIMETHIXENE MALEATE]
  inhibition at 50 µM: 0%

## CCc1ccc2c(O)c3c(cc2c1C(=O)OC)C(=O)c1c(O)ccc(O)c1C3=O [BISANHYDRORUTILANTINONE]
  inhibition at 50 µM: 2%

## O=C1OC(CN2CCOCC2)CN1/N=C/c1ccc([N+](=O)[O-])o1 (stereo not shown) [FURALTADONE]
  inhibition at 50 µM: 2%

## OC[C@H]1O[C@@H](O[C@@H]2[C@@H](CO)OC(O)(CO)[C@H]2O)[C@H](O)[C@@H](O)[C@H]1O (mixture of isomers) [LACTULOSE]
  inhibition at 50 µM: 2%

## CCOc1ccc2ccccc2c1C(=O)N[C@@H]1C(=O)N2[C@@H]1SC(C)(C)[C@@H]2C(=O)O [NAFCILLIN SODIUM]
  inhibition at 50 µM: 23%

## NCCc1ccc(O)c(O)c1 [DOPAMINE HYDROCHLORIDE]
  inhibition at 50 µM: 2%

## Cl.O=c1[nH]oc2c1CCNC2 [GABOXADOL HYDROCHLORIDE]
  Inhibition (%): 1

## Nc1nc2c(c(=O)[nH]1)N=C(CNc1ccc(C(=O)N[C@@H](CCC(=O)O)C(=O)O)cc1)CN2 [DIHYDROFOLIC ACID]
  inhibition at 50 µM: 49%

## COc1ccc(CCN(C)CCCC(C#N)(c2ccc(OC)c(OC)c2)C(C)C)cc1OC (stereo not shown) [VERAPAMIL HYDROCHLORIDE]
  inhibition at 50 µM: 1%

## Cc1ccccc1OCC(O)CO (stereo not shown) [MEPHENESIN]
  inhibition at 50 µM: 1%

## Cc1onc(-c2c(Cl)cccc2Cl)c1C(=O)N[C@@H]1C(=O)N2[C@@H]1SC(C)(C)[C@@H]2C(=O)O [DICLOXACILLIN SODIUM]
  inhibition at 50 µM: 0%

## Cc1cccc(C)c1N=C1NCCCS1 [XYLAZINE]
  inhibition at 50 µM: 0%

## Nc1ccc(S(=O)(=O)c2ccc(N)cc2)cc1 [DAPSONE]
  inhibition at 50 µM: 0%

## CCCCCCCCCCCCCCC(C(=O)O)C(O)(CC(=O)OC)C(=O)O (stereo not shown) [CAPERATIC ACID]
  Inhibition (%): 8

## CCOC(=O)NNc1nncc2ccccc12 [TODRALAZINE HYDROCHLORIDE]
  inhibition at 50 µM: 2%

## CO/N=C(\C(=O)N[C@@H]1C(=O)N2C(C(=O)OCOC(=O)C(C)(C)C)=C(/C=C\c3scnc3C)CS[C@H]12)c1csc(N)n1 [CEFDITORIN PIVOXIL]
  Inhibition (%): 2

## O=C(O)c1ccccc1Nc1cccc(C(F)(F)F)c1 [FLUFENAMIC ACID]
  inhibition at 50 µM: 62%

## COc1cc(Cc2cnc(N)nc2N)cc(OC)c1OC [TRIMETHOPRIM]
  inhibition at 50 µM: 0%

## O=C(O)CCNC(=O)c1ccccc1 [BETAMIPRON]
  inhibition at 50 µM: 0%

## CCCCCCCCCCCCCCCC(=O)OC/C=C(C)/C=C/C=C(C)/C=C/C1=C(C)CCCC1(C)C [RETINYL PALMITATE]
  inhibition at 50 µM: 15%

## O=C(OOC(=O)c1ccccc1)c1ccccc1 [BENZOYL PEROXIDE]
  inhibition at 50 µM: 11%

## CCOC(=O)OC(C)OC(=O)[C@@H]1N2C(=O)[C@@H](NC(=O)[C@H](N)c3ccccc3)[C@H]2SC1(C)C (stereo partly shown) [BACAMPICILLIN HYDROCHLORIDE]
  inhibition at 50 µM: 5%

## CC(=O)O[C@]1(C(C)=O)CC[C@H]2[C@@H]3C=C(Cl)C4=CC(=O)[C@@H]5C[C@@H]5[C@]4(C)[C@H]3CC[C@@]21C [CYPROTERONE ACETATE]
  inhibition at 50 µM: 0%

## C[C@H]1[C@H](C)CC[C@]2(C(=O)O)CC[C@]3(C)C(=CC[C@@H]4[C@@]5(C)C[C@@H](O)[C@H](O)[C@@](C)(CO)[C@@H]5CC[C@]43C)[C@H]12 [ASIATIC ACID]
  inhibition at 50 µM: 2%

## CCC[C@@H]1C[C@@H](C(=O)N[C@@H]([C@H]2O[C@H](SC)[C@H](O)[C@@H](O)[C@H]2O)[C@@H](C)O)N(C)C1 [LINCOMYCIN HYDROCHLORIDE]
  inhibition at 50 µM: 0%

## COC(=O)[C@H](Cc1ccccc1)NC(=O)[C@@H](N)CC(=O)O
  inhibition at 50 µM: 0%

## Cc1c(OCC(F)(F)F)ccnc1C[S+]([O-])c1nc2ccccc2[nH]1 (stereo not shown) [LANSOPRAZOLE]
  inhibition at 50 µM: 33%

## O=[N+]([O-])O[C@@H]1CO[C@H]2[C@@H]1OC[C@@H]2O [ISOSORBIDE MONONITRATE]
  inhibition at 50 µM: 0%

## Clc1ccccc1CN1CCc2sccc2C1 [TICLOPIDINE HYDROCHLORIDE]
  inhibition at 50 µM: 1%

## CN(C)[C@@H]1C(O)=C(C(N)=O)C(=O)[C@@]2(O)C(O)=C3C(=O)c4c(O)ccc(Cl)c4[C@@H](O)[C@H]3C[C@@H]12 [DEMECLOCYCLINE HYDROCHLORIDE]
  inhibition at 50 µM: 109%

## COC(=O)N/N=C/c1c[n+]([O-])c2ccccc2[n+]1[O-] [CARBADOX]
  inhibition at 50 µM: 3%

## CC1(C)C[C@@H]2C(=O)CC[C@H]3O[C@]3(C)CC[C@H]21 [KOBUSONE]
  inhibition at 50 µM: 1%

## COc1ccnc(C[S+]([O-])c2nc3ccc(OC(F)F)cc3[nH]2)c1OC (stereo not shown) [PANTOPRAZOLE]
  inhibition at 50 µM: 3%

## CC1=CCc2c(cc3oc(C)cc(=O)c3c2O)OC1 [PTAEROXYLIN]
  inhibition at 50 µM: 1%

## C[C@@H]1O[C@@H]1P(=O)(O)O [FOSFOMYCIN CALCIUM]
  inhibition at 50 µM: 1%

## COc1cc(C2Oc3cc([C@H]4Oc5cc(O)cc(O)c5C(=O)[C@@H]4O)ccc3OC2CO)ccc1O (stereo partly shown) [SILIBININ]
  inhibition at 50 µM: 27%

## CC(=O)O[C@H]1CCC2(C)C3=C(CCC2C1(C)C)[C@@]1(C)CC[C@@H](C(C)CCC=C(C)C)[C@]1(C)CC3 (stereo partly shown) [EUPHOL ACETATE]
  Inhibition (%): 1

## CC1=CC(=O)C(C(C)C)=CC1=O [THYMOQUINONE]
  inhibition at 50 µM: 2%

## CCCNC(=O)NS(=O)(=O)c1ccc(Cl)cc1 [CHLORPROPAMIDE]
  inhibition at 50 µM: 1%

## NCc1ccc(S(N)(=O)=O)cc1 [MAFENIDE HYDROCHLORIDE]
  inhibition at 50 µM: 1%

## CCOC(=O)[C@H](CCc1ccccc1)N[C@@H](C)C(=O)N1[C@H](C(=O)O)C[C@@H]2CCC[C@@H]21
  inhibition at 50 µM: 3%

## COc1ccc2c(c1)OCc1c-2oc2cc(OC)ccc12 [DEHYDROVARIABILIN]
  inhibition at 50 µM: 1%

## CC1(C)CC2C1CCC1(C)OC2(C)CCC1O (stereo not shown) [3.7-EPOXYCARYOPHYLLAN-6-OL]
  Inhibition (%): 2

## CC(=O)Nc1ccccc1 [ACETANILIDE]
  inhibition at 50 µM: 1%

## CC(C)(N)Cc1ccccc1 [PHENTERMINE]
  inhibition at 50 µM: 15%

## O=C(O)CCCCCCCCCCCC[C@@H]1C=CCC1 [CH[…]]
  inhibition at 50 µM: 156%

## CC(COc1ccccc1)NC(C)C(O)c1ccc(O)cc1 (stereo not shown) [ISOXSUPRINE HYDROCHLORIDE]
  inhibition at 50 µM: 2%

## Nc1nc(=O)c2[nH]c(=O)cnc2[nH]1 [XANTHOPTERIN]
  inhibition at 50 µM: 2%

## COc1cc2nc(N(C)CCCNC(=O)C3CCCO3)nc(N)c2cc1OC (stereo not shown) [ALFLUZOSIN]
  Inhibition (%): 1

## COc1ccc(-c2cc(C(F)F)nn2-c2ccc(S(N)(=O)=O)cc2)cc1F [DERACOXIB]
  inhibition at 50 µM: 2%
